From ChEMBL document CHEMBL2016476, “Phosphonium lipocations as antiparasitic agents” (Bioorg Med Chem Lett, 2012)

Legend:
[1] = Octanol-water partition coefficient, log D of the compound at pH 7.4; type: physicochemical
Plasmodium falciparum = assay: microbe, parasite or virus in culture; conditions: W2
Description: Antiplasmodial activity against Plasmodium falciparum W2 infected in human erythrocytes

Vero [2] = assay: Cytotoxicity against african green monkey Vero cells at 6.25 uM after 3 days; type: cell-based; conditions: chlorocebus sabaeus, 72 h
Trypanosoma cruzi = assay: Antitrypanosomal activity against Trypanosoma cruzi Tulahuen 2 infected in african green monkey Vero cells expressing red fluorescent protein after 3 days by fluorescence analysis; type: functional, organism-based; conditions: Tulahuen 2, Vero, 72 h
Vero [3] = assay: Cytotoxicity against african green monkey Vero cells at 25 uM after 3 days; type: cell-based; conditions: chlorocebus sabaeus, 72 h

In the case of `CC1=C(CCCCCCCCCC[P+](C)(C)C)C(=O)c2ccccc2C1=O`, the logD [1] is reported as 1.95 and the IC50 (Plasmodium falciparum) is reported as 0.404 µM.
`C[P+](C)(C)CCCCCCCCCCN1C(=O)c2ccccc2C1=O` gave a logD [1] of -0.08 and an IC50 (Plasmodium falciparum) greater than 10 µM.
For `O=C1c2ccccc2C(=O)N1CCCC[P+](c1ccccc1)(c1ccccc1)c1ccccc1`, the logD [1] was 0.01 and the IC50 (Plasmodium falciparum) was 3.5 µM.
`O=C1c2ccccc2C(=O)N1CCCCCC[P+](c1ccccc1)(c1ccccc1)c1ccccc1` gave a logD [1] of 1.14 and an IC50 (Plasmodium falciparum) of 1.02 µM.
Work on `O=C1c2ccccc2C(=O)N1CCCCCCCCCC[P+](c1ccc(F)cc1)(c1ccc(F)cc1)c1ccc(F)cc1` yielded a logD [1] of 2.13 and an IC50 (Plasmodium falciparum) of 0.346 µM.
With `O=C1c2ccccc2C(=O)N1CCCCCCCCCC[P+](Cc1ccccc1)(Cc1ccccc1)Cc1ccccc1` the logD [1] was 1.37 and the IC50 (Plasmodium falciparum) was 0.288 µM.
Compound `CCCC[P+](CCCC)(CCCC)CCCCCCCCCCN1C(=O)c2ccccc2C1=O` has a logD [1] of 3.68 and an IC50 (Plasmodium falciparum) of 0.194 µM.
`O=C1c2ccccc2C(=O)N1CCCCCCCCCC[P+](c1ccccc1)(c1ccccc1)c1ccccc1` gave a logD [1] of 1.67 and an IC50 (Plasmodium falciparum) of 0.173 µM.
`Cc1ccccc1[P+](CCCCCCCCCCN1C(=O)c2ccccc2C1=O)(c1ccccc1C)c1ccccc1C` gave a logD [1] of -0.75 and an IC50 (Plasmodium falciparum) of 0.143 µM.
For `O=C1c2ccccc2C(=O)N1CCCCCCCCCC[P+](C1CCCCC1)(C1CCCCC1)C1CCCCC1`, the logD [1] was 4.5 and the IC50 (Plasmodium falciparum) was 0.141 µM.
Compound `COc1ccc([P+](CCCCCCCCCCN2C(=O)c3ccccc3C2=O)(c2ccc(OC)cc2)c2ccc(OC)cc2)cc1` has a logD [1] of 3.19 and an IC50 (Plasmodium falciparum) of 0.134 µM.
In the case of `O=C1C=C(NCC[P+](c2ccccc2)(c2ccccc2)c2ccccc2)C(=O)c2ccccc21`, the logD [1] is reported as -1.08 and the IC50 (Plasmodium falciparum) is reported as 0.52 µM.
For `O=C1C=C(NCCCCCCCCCC[P+](c2ccc(F)cc2)(c2ccc(F)cc2)c2ccc(F)cc2)C(=O)c2ccccc21`, the logD [1] was 1.67 and the IC50 (Plasmodium falciparum) was 0.292 µM.
`O=C1C=C(NCCCCCCCCCC[P+](Cc2ccccc2)(Cc2ccccc2)Cc2ccccc2)C(=O)c2ccccc21` showed a logD [1] of 2.8 and an IC50 (Plasmodium falciparum) of 0.215 µM.
Work on `COc1ccc([P+](CCCCCCCCCCNC2=CC(=O)c3ccccc3C2=O)(c2ccc(OC)cc2)c2ccc(OC)cc2)cc1` yielded a logD [1] of 4.37 and an IC50 (Plasmodium falciparum) of 0.134 µM.
For `O=C1C=C(NCCCCCCCCCC[P+](c2ccccc2)(c2ccccc2)c2ccccc2)C(=O)c2ccccc21`, the Activity (Vero [2]) was “Toxic”, the IC50 (Trypanosoma cruzi) was 1.6 µM and the Activity (Vero [3]) was “Toxic”. The logD [1] was 3.6 and the IC50 (Plasmodium falciparum) was 0.114 µM.
`O=C1C=C(NCCCCCCCCCC[P+](C2CCCCC2)(C2CCCCC2)C2CCCCC2)C(=O)c2ccccc21` showed a logD [1] of 3.41 and an IC50 (Plasmodium falciparum) of 0.0944 µM.
With `O=C1C=C(CCCCCCCCCC[P+](Cc2ccccc2)(Cc2ccccc2)Cc2ccccc2)C(=O)c2ccccc21` the Activity (Vero [2]) was “Non-toxic”, the IC50 (Trypanosoma cruzi) was 3 µM and the Activity (Vero [3]) was “Non-toxic”. For the same compound, the logD [1] was 5.32 and the IC50 (Plasmodium falciparum) was 1.3 µM.
Compound `O=C1C=C(CCCCCCCCCC[P+](c2ccc(F)cc2)(c2ccc(F)cc2)c2ccc(F)cc2)C(=O)c2ccccc21` has a logD [1] of 1.66 and an IC50 (Plasmodium falciparum) of 0.846 µM.
`O=C1C=C(CCCCCCCCCC[P+](c2ccccc2)(c2ccccc2)c2ccccc2)C(=O)c2ccccc21` gave a logD [1] of 4.08 and an IC50 (Plasmodium falciparum) of 0.259 µM.
For `O=C1C=C(CCCCC[P+](c2ccccc2)(c2ccccc2)c2ccccc2)C(=O)c2ccccc21`, the logD [1] was 1 and the IC50 (Plasmodium falciparum) was 0.157 µM.
Work on `CC1=C(CCCCC[P+](C)(C)C)C(=O)c2ccccc2C1=O` yielded a logD [1] of 0.21 and an IC50 (Plasmodium falciparum) of 0.956 µM.
In the case of `CC1=C(C[P+](c2ccccc2)(c2ccccc2)c2ccccc2)C(=O)c2ccccc2C1=O`, the logD [1] is reported as 1.89 and the IC50 (Plasmodium falciparum) is reported as 0.543 µM.
In the case of `CC1=C(CCCCCCCCCC[P+](Cc2ccccc2)(Cc2ccccc2)Cc2ccccc2)C(=O)c2ccccc2C1=O`, the Activity (Vero [2]) is reported as “Non-toxic”, the IC50 (Trypanosoma cruzi) is reported as 3.7 µM and the Activity (Vero [3]) is reported as “Toxic”. The logD [1] was 6.64 and the IC50 (Plasmodium falciparum) was 0.212 µM.
For `CCCC[P+](CCCC)(CCCC)CCCCCCCCCCC1=C(C)C(=O)c2ccccc2C1=O`, the Activity (Vero [2]) was “Non-toxic”, the IC50 (Trypanosoma cruzi) was 4 µM and the Activity (Vero [3]) was “Toxic”. The logD [1] was 5.1 and the IC50 (Plasmodium falciparum) was 0.156 µM.
Compound `CC1=C(CCCCCCCCCC[P+](c2ccccc2C)(c2ccccc2C)c2ccccc2C)C(=O)c2ccccc2C1=O` has a logD [1] of 3.58 and an IC50 (Plasmodium falciparum) of 0.143 µM.
For `CC1=C(CCCCCCCCCC[P+](c2ccccc2)(c2ccccc2)c2ccccc2)C(=O)c2ccccc2C1=O`, the Activity (Vero [2]) was “Toxic”, the IC50 (Trypanosoma cruzi) was 1.6 µM and the Activity (Vero [3]) was “Toxic”. The logD [1] was 3.97 and the IC50 (Plasmodium falciparum) was 0.143 µM.
In the case of `CC1=C(CCCCCCCCCC[P+](C2CCCCC2)(C2CCCCC2)C2CCCCC2)C(=O)c2ccccc2C1=O`, the Activity (Vero [2]) is reported as “Non-toxic”, the IC50 (Trypanosoma cruzi) is reported as 2.4 µM and the Activity (Vero [3]) is reported as “Toxic”. For the same compound, the logD [1] was 3.64 and the IC50 (Plasmodium falciparum) was 0.134 µM.
In the case of `COc1ccc([P+](CCCCCCCCCCC2=C(C)C(=O)c3ccccc3C2=O)(c2ccc(OC)cc2)c2ccc(OC)cc2)cc1`, the logD [1] is reported as 3.52 and the IC50 (Plasmodium falciparum) is reported as 0.131 µM.
For `CC1=C(CCCCC[P+](c2ccccc2)(c2ccccc2)c2ccccc2)C(=O)c2ccccc2C1=O`, the Activity (Vero [2]) was “Non-toxic”, the IC50 (Trypanosoma cruzi) was 5.4 µM and the Activity (Vero [3]) was “Toxic”. It also gave a logD [1] of 2.15 and an IC50 (Plasmodium falciparum) of 0.0483 µM.
For `CC1=C(CCCC[P+](c2ccccc2)(c2ccccc2)c2ccccc2)C(=O)c2ccccc2C1=O`, the Activity (Vero [2]) was “Non-toxic”, the IC50 (Trypanosoma cruzi) was 2.7 µM and the Activity (Vero [3]) was “Non-toxic”. It also gave a logD [1] of 1.91 and an IC50 (Plasmodium falciparum) of 0.0187 µM.
For `CCCCCCCCCNC1=CC(=O)c2ccccc2C1=O`, the Activity (Vero [2]) was “Non-toxic”, the IC50 (Trypanosoma cruzi) was 17.3 µM and the Activity (Vero [3]) was “Non-toxic”. The IC50 (Plasmodium falciparum) was greater than 10 µM.
In the case of `CCCCCCCCCCC1=CC(=O)c2ccccc2C1=O`, the Activity (Vero [2]) is reported as “Non-toxic”, the IC50 (Trypanosoma cruzi) is reported as 9.3 µM and the Activity (Vero [3]) is reported as “Non-toxic”. For the same compound, the IC50 (Plasmodium falciparum) was greater than 10 µM.
`CCCCCCCCCCN1C(=O)c2ccccc2C1=O` gave an IC50 (Plasmodium falciparum) greater than 10 µM.
`C[C@@H]1CC[C@H]2[C@@H](C)C(=O)O[C@@H]3O[C@@]4(C)CC[C@@H]1[C@]32OO4` [ARTEMISININ] gave an IC50 (Plasmodium falciparum) of 0.00731 µM.
With `O=C1C(O)=C([C@H]2CC[C@H](c3ccc(Cl)cc3)CC2)C(=O)c2ccccc21` [ATOVAQUONE] the IC50 (Plasmodium falciparum) was 0.00028 µM.
In the case of `O=C(Cn1ccnc1[N+](=O)[O-])NCc1ccccc1` [BENZNIDAZOLE], the Activity (Vero [2]) is reported as “Non-toxic” and the Activity (Vero [3]) is reported as “Non-toxic”.
With `CCCC[P+](c1ccccc1)(c1ccccc1)c1ccccc1` [BUTYLTRIPHENYLPHOSPHONIUM] the IC50 (Plasmodium falciparum) was 3.5 µM.
Compound `CCCCCCCCCC[P+](c1ccccc1)(c1ccccc1)c1ccccc1` [DECYLTRIPHENYLPHOSPHONIUM] has an IC50 (Plasmodium falciparum) of 0.142 µM.
